Data as given in ChEMBL document CHEMBL5625240, “Synthesis and evaluation of 2-NMPA derivatives as potential agents for prevention of osteoporosis in vitro and in vivo” (Eur J Med Chem, 2023).
Where “and” joins values, the source holds several entries; their conditions need not be identical. Identical values can stand only once. Each block holds one compound with its values, some of them ahead of it. Calls of active or inactive are those of the source. The calls are words filed in the database; no cut-off is given here.

Key:
[1] = test system: BMDM; assay: Anti-osteoporosis activity in mouse BMDM cells assessed as inhibition of RANKL-induced osteoclastogenesis at 2 uM measured for 30 mins in presence of MCSF by TRAP staining based assay; assay type: functional; conditions: for inhibition at 2 µM: Mus musculus, BMDM
[2] = test system: BMDM; assay: Anti-osteoporosis activity in mouse BMDM cells assessed as inhibition of […]-induced osteoclastogenesis at 2 uM measured for 30 mins in presence of MCSF by TRAP staining based assay; assay type: functional; conditions: 0.5 h
[3] = test system: BMDM; assay: Anti-osteoporosis activity in mouse BMDM cells assessed as inhibition of RANKL-induced osteoclastogenesis at 1 uM measured for 30 mins in presence of MCSF by TRAP staining based assay; assay type: functional; conditions: 0.5 h
[4] = test system: BMDM; assay: Inhibition of RANKL/M-CSF-induced osteoclastogenesis in mouse BMDM cells assessed as decrease in bone resorption pit size at 1000 nM incubated for 6 days by microscopic analysis; assay type: functional, cell-based; conditions: time 6.0 day
[5] = test system: Mus musculus; assay: Anti-osteoporosis activity in OVX-induced osteoporosis C57BL/6 mouse model assessed as reduction in […] level in serum at 10 mg/kg, ip daily for 4 weeks; assay type: functional, organism-based
[6] = test system: BMDM; assay: Inhibition of RANKL/M-CSF-induced osteoclastogenesis in mouse BMDM cells assessed as decrease in Acp5 mRNA level at 1 uM incubated for 4 days by qRT-PCR analysis; assay type: functional, cell-based; conditions: time 4.0 day
[7] = test system: BMDM; assay: Anti-osteoporosis activity in mouse BMDM cells assessed as inhibition of RANKL/M-CSF-induced osteoclasts formation measured for 4 days by TRAP staining based assay; assay type: functional, cell-based
[8] = test system: BMDM; assay: Cytotoxicity against mouse BMDM cells assessed as reduction in cell viability at < 4 uM incubated for 48 hrs; assay type: toxicity, cell-based
[9] = test system: BMDM; assay: Anti-osteoclastogenesis activity in mouse BMDM cells assessed as inhibition of RANKL/M-CSF-induced osteoclasts differentiation at below 2 uM measured for 9 days by […] staining based assay; assay type: functional, cell-based; conditions: time 9.0 day
[10] = test system: BMDM; assay: Anti-osteoclastogenesis activity in mouse BMDM cells assessed as inhibition of RANKL/M-CSF-induced osteoclasts differentiation at 2 uM measured for 9 days by […] staining based assay; assay type: functional; conditions: 216 h, time 9 day
[11] = test system: BMDM; assay: Inhibition of RANKL/M-CSF-induced osteoclastogenesis in mouse BMDM cells assessed as reduction in F-actin belt size formation at 500 to 2000 nM incubated for 6 days by immunofluorescence assay; assay type: functional, cell-based; conditions: dose 500-2000 nM, time 6.0 day
[12] = test system: BMDM; assay: Inhibition of RANKL/M-CSF-induced osteoclastogenesis in mouse BMDM cells assessed as reduction in F-actin belt size formation at 1000 nM incubated for 6 days by immunofluorescence assay; assay type: functional, cell-based; conditions: time 6.0 day
[13] = test system: BMDM; assay: Inhibition of RANKL/M-CSF-induced osteoclastogenesis in mouse BMDM cells assessed as reduction in F-actin belt size formation at 1 uM incubated for 6 days by immunofluorescence assay; assay type: functional, cell-based; conditions: time 6.0 day
[14] = test system: BMDM; assay: Inhibition of RANKL/M-CSF-induced osteoclastogenesis in mouse BMDM cells assessed as decrease in bone resorption pit number at 500 to 2000 nM incubated for 6 days by microscopic analysis; assay type: functional, cell-based; conditions: dose 500-2000 nM, time 6.0 day
[15] = test system: BMDM; assay: Inhibition of RANKL/M-CSF-induced osteoclastogenesis in mouse BMDM cells assessed as decrease in bone resorption pit size at 500 to 2000 nM incubated for 6 days by microscopic analysis; assay type: functional, cell-based; conditions: dose 500-2000 nM, time 6.0 day
[16] = test system: BMDM; assay: Inhibition of RANKL/M-CSF-induced osteoclastogenesis in mouse BMDM cells assessed as decrease in Nfatc1 mRNA level at 1 uM incubated for 4 days by qRT-PCR analysis; assay type: functional, cell-based; conditions: time 4.0 day
[17] = test system: BMDM; assay: Inhibition of RANKL/M-CSF-induced osteoclastogenesis in mouse BMDM cells assessed as decrease in Dc-stamp mRNA level at 1 uM incubated for 4 days by qRT-PCR analysis; assay type: functional, cell-based; conditions: time 4.0 day
[18] = test system: BMDM; assay: Inhibition of RANKL/M-CSF-induced osteoclastogenesis in mouse BMDM cells assessed as decrease in Atp6v0d2 mRNA level at 1 uM incubated for 4 days by qRT-PCR analysis; assay type: functional, cell-based; conditions: time 4.0 day
[19] = test system: BMDM; assay: Inhibition of RANKL/M-CSF-induced osteoclastogenesis in mouse BMDM cells assessed as decrease in Mmp9 mRNA level at 1 uM incubated for 4 days by qRT-PCR analysis; assay type: functional, cell-based; conditions: time 4.0 day
[20] = test system: BMDM; assay: Inhibition of RANKL/M-CSF-induced osteoclastogenesis in mouse BMDM cells assessed as decrease in CTSK mRNA level at 1 uM incubated for 4 days by qRT-PCR analysis; assay type: functional, cell-based; conditions: time 4.0 day
[21] = test system: BMDM; assay: Downregulation of NFATc1 expression in mouse RANKL-induced BMDM cells at 1 uM incubated for 4 days by Western blot analysis; assay type: functional, cell-based; conditions: time 4.0 day
[22] = test system: BMDM; assay: Downregulation of TRAF6 expression in RANKL-induced mouse BMDM cells at 1 uM incubated for 4 days by Western blot analysis; assay type: functional, cell-based; conditions: time 4.0 day
[23] = test system: BMDM; assay: Downregulation of c-fos expression in RANKL-induced mouse BMDM cells at 1 uM incubated for 4 days by Western blot analysis; assay type: functional, cell-based; conditions: time 4.0 day
[24] = test system: BMDM; assay: Downregulation of c-src expression in RANKL-induced mouse BMDM cells at 1 uM incubated for 4 days by Western blot analysis; assay type: functional, cell-based; conditions: time 4.0 day
[25] = test system: BMDM; assay: Downregulation of CTSK expression in RANKL-induced mouse BMDM cells at 1 uM incubated for 4 days by Western blot analysis; assay type: functional, cell-based; conditions: time 4.0 day
[26] = test system: BMDM; assay: Inhibition of PI3K phosphorylation in RANKL/M-CSF-induced mouse BMDM cells by Western blot analysis; assay type: cell-based; conditions: dose 1.0 µM
[27] = test system: BMDM; assay: Inhibition of AKT phosphorylation in RANKL/M-CSF-induced mouse BMDM cells by Western blot analysis; assay type: cell-based; conditions: dose 1.0 µM
[28] = target: T1, NF-kappa-B inhibitor alpha (Mus musculus) (UniProt Q9Z1E3); assay: Inhibition of IkappaBalpha phosphorylation in RANKL/M-CSF-induced mouse BMDM cells by Western blot analysis; assay type: cell-based; conditions: dose 1.0 µM
T1 sequence (whole entry): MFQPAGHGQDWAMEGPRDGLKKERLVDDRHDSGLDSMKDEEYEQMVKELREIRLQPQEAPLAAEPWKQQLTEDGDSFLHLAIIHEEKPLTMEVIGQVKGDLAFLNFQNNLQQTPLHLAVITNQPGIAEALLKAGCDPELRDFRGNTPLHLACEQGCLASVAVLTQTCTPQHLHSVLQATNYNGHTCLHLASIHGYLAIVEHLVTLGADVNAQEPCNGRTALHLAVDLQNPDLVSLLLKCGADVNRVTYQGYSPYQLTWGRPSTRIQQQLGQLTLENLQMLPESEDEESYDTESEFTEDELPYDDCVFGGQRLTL

[29] = test system: BMDM; assay: Inhibition of NF-kappaB phosphorylation in RANKL/M-CSF-induced mouse BMDM cells by Western blot analysis; assay type: cell-based; conditions: dose 1.0 µM
[30] = test system: Mus musculus; assay: Anti-osteoporosis activity in OVX-induced osteoporosis C57BL/6 mouse model assessed as prevention of bone loss in femur at 10 mg/kg, ip daily for 4 weeks by micro computed tomographic analysis; assay type: functional, organism-based
[31] = test system: Mus musculus; assay: Anti-osteoporosis activity in OVX-induced osteoporosis C57BL/6 mouse model assessed as recovery of bone surface density in femur at 10 mg/kg, ip daily for 4 weeks by micro computed tomographic analysis; assay type: functional, organism-based
[32] = test system: Mus musculus; assay: Anti-osteoporosis activity in OVX-induced osteoporosis C57BL/6 mouse model assessed as recovery of trabecular separation in femur at 10 mg/kg, ip daily for 4 weeks by micro computed tomographic analysis; assay type: functional, organism-based
[33] = test system: Mus musculus; assay: Anti-osteoporosis activity in OVX-induced osteoporosis C57BL/6 mouse model assessed as recovery of trabecular number in femur at 10 mg/kg, ip daily for 4 weeks by micro computed tomographic analysis; assay type: functional, organism-based
[34] = test system: Mus musculus; assay: Anti-osteoporosis activity in OVX-induced osteoporosis C57BL/6 mouse model assessed as recovery of trabecular volume in femur at 10 mg/kg, ip daily for 4 weeks by micro computed tomographic analysis; assay type: functional, organism-based
[35] = test system: BMDM; assay: Anti-osteoclastogenesis activity in RANKL/M-CSF-induced mouse BMDM cells assessed as inhibition of TRAF6 protein expression at 1 uM measured for 4 days; assay type: functional, cell-based; conditions: time 4.0 day

SMILES: Cc1ccc(OCC(=O)Nc2cccc(Cl)c2N2CCOCC2)c(C(C)C)c1
inhibition at 2 µM ([1]; 0.5 h): 86.4% | inhibition at 2 µM [2]: 82.9%

SMILES: CCC(=O)N1CCN(c2ccccc2NC(=O)COc2ccccc2Cl)CC1
inhibition at 1 µM [3]: 42% | inhibition [4]: Active | Activity [5]: Active

IC50 ([7]; 96 h): 358 nM | inhibition [28]: Active
SMILES: CC(=O)Nc1ccc(S(=O)(=O)Oc2ccc(NC(=O)COc3ccccc3Cl)c(N3CCOCC3)c2)cc1
inhibition [6]: Active | inhibition at 1 µM [3]: 61.5% | inhibition ([7]; dose <= 4000.0 nM, time 4.0 day): Dose-Dependent Effect | Activity [8]: Non-Toxic | inhibition [9]: inactive | inhibition at 2 µM [10]: 100% | inhibition [11]: Active | inhibition [12]: Active | inhibition [13]: Active | inhibition [14]: Active | inhibition [15]: Active | inhibition [16]: Active | inhibition [17]: Active | inhibition [18]: Active | inhibition [19]: Active | inhibition [20]: Active | Activity [21]: Active | Activity [22]: Active | Activity [23]: Active | Activity [24]: Active | Activity [25]: Active | inhibition [26]: Active | inhibition [27]: Active | inhibition [29]: Active | Activity [30]: Active | Activity [31]: Active | Activity [32]: Active | Activity [33]: Active | Activity [34]: Active | Activity [5]: Active | Activity [35]: Active

SMILES: CC(C)(C)[Si](C)(C)Oc1ccc(NC(=O)COc2ccccc2Cl)c(N2CCOCC2)c1
inhibition at 1 µM [3]: 34.8%

SMILES: O=C(COc1ccccc1Cl)Nc1ccc(OC(=O)c2ccco2)cc1N1CCOCC1
inhibition at 1 µM [3]: 31.4%

SMILES: Cc1cccc(OCC(=O)Nc2ccccc2N2CCOCC2)c1C
inhibition at 2 µM ([1]; 0.5 h): 13.6%

SMILES: CCC(=O)Oc1ccc(NC(=O)COc2ccccc2Cl)c(N2CCOCC2)c1
inhibition at 1 µM [3]: 32.8%

SMILES: NCCCC(O)(P(=O)(O)O)P(=O)(O)O [ALENDRONIC ACID]
inhibition at 2 µM ([1]; 0.5 h): 67.9%

SMILES: COC(=O)c1ccc(N2CCOCC2)c(NC(=O)COc2cccc(C)c2)c1
inhibition (INH) ([1]; 0.5 h, 2 µM): 94.58% and 52.52% | inhibition at 2 µM [2]: 2.77% | inhibition at 1 µM [3]: 52.5%

SMILES: Cc1cc(=O)oc2cc(OCC(=O)Nc3cc(C(F)(F)F)ccc3N3CCOCC3)ccc12
inhibition at 2 µM ([1]; 0.5 h): 95.3% | inhibition at 2 µM [2]: 29.4%

SMILES: CS(=O)(=O)N(CC(=O)Nc1ccccc1Sc1ccccc1)c1cccc(C(=O)Oc2ccc(NC(=O)COc3ccccc3Cl)c(N3CCOCC3)c2)c1
inhibition at 1 µM [3]: 50.9%

SMILES: O=C(CS(=O)(=O)c1ccccc1)Nc1cccc(Cl)c1N1CCOCC1
inhibition at 2 µM ([1]; 0.5 h): 62.1%

SMILES: O=C(COc1ccccc1Cl)Nc1ccccc1N1CCOCC1
inhibition at 1 µM [3]: 21%

SMILES: CC(=O)Nc1ccc(S(=O)(=O)Oc2ccc(N)c(N3CCOCC3)c2)cc1
inhibition at 1 µM [3]: 11.3%

SMILES: O=C(CSc1cccc2ccccc12)Nc1ccccc1N1CCOCC1
inhibition at 2 µM ([1]; 0.5 h): 61.3%

SMILES: CCCN(CCC)S(=O)(=O)c1ccc(C(=O)Oc2ccc(NC(=O)COc3ccccc3Cl)c(N3CCOCC3)c2)cc1
inhibition at 1 µM [3]: 21.6%

SMILES: O=C(COc1ccccc1Cl)Nc1ccc(OC(=O)c2ccccc2F)cc1N1CCOCC1
inhibition at 1 µM [3]: 34.2%

SMILES: O=C(COc1ccccc1Cl)Nc1ccc(O)cc1N1CCOCC1
inhibition at 1 µM [3]: 27.1%

SMILES: Cc1cc(OCC(=O)Nc2ccccc2N2CCOCC2)cc(C)c1Cl
inhibition [1]: inactive

SMILES: O=C(COc1ccccc1Cl)Nc1ccc(OS(=O)(=O)C(F)(F)F)cc1N1CCOCC1
inhibition at 1 µM [3]: 50.5%

SMILES: CC(C)(C)OC(=O)N[C@@H](Cc1cn(C(=O)OC(C)(C)C)cn1)C(=O)Oc1ccc(NC(=O)COc2ccccc2Cl)c(N2CCOCC2)c1
inhibition at 1 µM [3]: 34.6%

SMILES: Cc1ccc(S(=O)(=O)CC(=O)Nc2cc(Cl)ccc2N2CCOCC2)cc1
inhibition at 2 µM ([1]; 0.5 h): 30.9%

SMILES: O=C(COc1ccccc1Cl)Nc1ccc(OC(=O)c2cccs2)cc1N1CCOCC1
inhibition at 1 µM [3]: 39.3%

SMILES: CC(Oc1ccc(Cl)cc1Cl)C(=O)Nc1cccc(Cl)c1N1CCOCC1 (configuration not stated)
inhibition at 2 µM ([1]; 0.5 h): 43.4%
